Measured values: article PMC7970304, “The Effects of Apelin and Elabela Ligands on Apelin Receptor Distinct Signaling Profiles” (Frontiers in Pharmacology, 2021)

Target: T1, APJ (Apelin receptor) (Homo sapiens, UniProt P35414)
T1 sequence (P35414 1-380): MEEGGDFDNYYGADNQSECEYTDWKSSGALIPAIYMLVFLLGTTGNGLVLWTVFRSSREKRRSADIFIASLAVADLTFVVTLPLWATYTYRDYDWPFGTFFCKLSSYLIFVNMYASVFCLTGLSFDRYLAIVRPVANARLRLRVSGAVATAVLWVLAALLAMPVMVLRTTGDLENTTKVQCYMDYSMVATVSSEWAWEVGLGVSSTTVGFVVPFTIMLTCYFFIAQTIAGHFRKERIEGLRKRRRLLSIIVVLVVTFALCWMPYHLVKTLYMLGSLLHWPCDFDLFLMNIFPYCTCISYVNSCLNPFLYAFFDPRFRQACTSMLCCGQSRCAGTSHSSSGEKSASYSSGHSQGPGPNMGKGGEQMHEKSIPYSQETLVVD
Test: Intracellular calcium assay (Fluo-4 NW)
Type: cell-based
Description: HEK293 cells stably expressing APJ were plated at 10^4 cells per well in 96-well black microplates pretreated with a 0.1 mg/ml solution of poly-D-lysine for 24 h. Calcium fluorescence signals in cells were measured using the Fluo-4 NW calcium assay kit (Thermo Fisher Scientific) according to the manufacturer’s instructions ([Chen et al., 2014]; [Wang et al., 2017]). Before detection, cells were washed twice with assay buffer (1 × HBSS, 20 mM HEPES). One hundred microlitres of the dye loading solution was added to each well of a 96-well plate. Cells were incubated at 37°C in 5% CO2 humidified atmosphere for 30 min, then at room temperature for an additional 30 min. Cells were stimulated with six ligands (100 nM) for 5 min, then calcium signals were immediately measured on a Mithras LB940 plate reader (Berthold Technologies, Bad Wildbad, Germany) with an excitation wavelength of 485 nm and an emission wavelength of 525 nm. Dose response curve: cells were stimulated with different concentrations of six peptides for 30 s, and calcium fluorescence was detected. The calculation of the calcium fluorescence ratio was described previously ([Chen et al., 2014]).
The concentration-response data for the ligands in various assays were analyzed to determine the biases of the ligands for G protein dependent signaling or β-arrestin dependent signaling, according to a previously published method ([Kenakin et al., 2012]; [Hager et al., 2016]; [Hothersall et al., 2017]). Briefly, the concentration-response data for each ligand were fitted to the Black–Leff operation model to obtain the values of τ and K A, using the following equation: Response=[A]^nτ^nEm/[A]^nτ^n+([A]KA)^n where [A] is the concentration of the agonist, E m is the maximal response of the system, n is the transducer slope, and K A and τ describe the affinity and efficacy of the agonist, respectively. In the data fitting, the reparametrized form of the equation proposed by [Kenakin et al. (2012)] was used: Response=Em/1+exp{nln[1+exp(β1)/[A]]−nβ2} where β 1 and β 2 are the natural logarithm of K A and τ, respectively, and E m was set to 1. Thus, for each concentration-response curve, a non-linear regression was performed to fit the above equation to give β 1 and β 2 (as well as n). Log (τ/K A) values (“transduction coefficients”) for each ligand vs. each pathway were obtained. […] The ΔΔlog (τ/K A), or Log (Bias), which is the logarithm of the bias factor for a given pathway over a reference pathway (here, intracellular calcium release), was calculated for each ligand as Δlog (τ/K A)–Δlog (τ/K A)Calcium. The 95% confidence interval (CI) was expressed as the mean ± standard error; Log (Bias) values, whose 95% CI crosses 0, were considered statistically insignificant.
The data were analyzed using GraphPad Prism v5.0. All the data are presented as the mean ± SEM. Differences between groups were compared by one-way analysis of variants (ANOVA), followed by post-hoc tests (Tukey’s test), When p < 0.05, the difference was considered significant. All experiments were repeated at least four times. The dose-response curves were generated using non-linear fitting model log (agonist) vs. response (three-parameters), with Hill Slope held to 1, i.e., Y = Bottom + (Top-Bottom)/(1 + 10^(LogEC50-X)).
HEK293 cells stably expressed APJ, and in 30 s, the dose response curve stimulated with six peptides was measured. Data represent mean ± SEM from four independent experiments (Supplementary Table S2). With six peptides (B) stimulation, the dose-response curve of GRK2 recruited to APJ was measured by BRET (at 15 min). p < 0.05 was considered as statistically significant. Data represent mean ± SEM from four independent experiments (Supplementary Table S3).
P<0.05 was considered as statistically significant. Control group (HG, Cells were stimulated with high glucose).

[1] = Ca2+ (reference pathway), reference ligand Apelin-13

SMILES: CSCC[C@H](NC(=O)[C@@H]1CSSC[C@H](NC(=O)[C@H](CC(N)=O)NC(=O)[C@H](Cc2c[nH]cn2)NC(=O)[C@H](CCCCN)NC(=O)[C@H](CCCNC(=N)N)NC(=O)[C@@H](N)CC(C)C)C(=O)N[C@@H](CC(C)C)C(=O)N[C@@H](CCC(N)=O)C(=O)N[C@@H](CCCNC(=N)N)C(=O)N[C@@H](CCCNC(=N)N)C(=O)N1)C(=O)N1CCC[C@H]1C(=O)N[C@@H](CC(C)C)C(=O)N[C@@H](Cc1c[nH]cn1)C(=O)N[C@@H](CO)C(=O)N[C@@H](CCCNC(=N)N)C(=O)N[C@H](C(=O)N1CCC[C@H]1C(=O)N[C@@H](Cc1ccccc1)C(=O)N1CCC[C@H]1C(=O)O)C(C)C [Elabela-21]
- P vs HG, intracellular calcium (0.001 nM): P>0.05
- P vs HG, intracellular calcium (0.01 nM): P>0.05
- P vs HG, intracellular calcium (0.1 nM): P>0.05
- P vs HG, intracellular calcium (1 nM): P>0.05
- P vs HG, intracellular calcium (10 nM): ^*P<0.05
- P vs HG, intracellular calcium (100 nM): ^***P<0.001
- P vs HG, intracellular calcium (1000 nM): ^***P<0.001
- Bias factor [1]: 1.0
- Log (Bias) [1]: 0.0
- log (τ/KA) (Ca2+ pathway, Black–Leff operational model): −1.8
- Δlog (τ/KA) (Ca2+ pathway, relative to Apelin-13): −1.6
